Measured values from patent US20240254119A1 (THIRD HARMONIC BIO, INC., priority 2022, published 2024).

Legend:
[1] = target: T1, MDR1 (MDR1-MDCKII cells) (Homo sapiens, UniProt P08183); test: Permeability in MDR1-MDCKII cells; format: in vitro ADME; details: for MDCKII-MDR1: Papp A-B: MDCKII-MDR1, apical to basolateral
T1 construct: host or cells: MDCKII (canine kidney) cells
Protocol: Exemplary compounds were tested for cell permeability in Caco-2, MDCKII-MDR1 and MDCKII-BCRP cell lines with efflux transporter engagement inferred from the efflux ratios determined. Procedures and results are described below. […] This feature of certain compounds is in part due to efflux transporter engagement. See, for instance, exemplary such compounds included in data tables below.
MDR1-MDCKII cells (obtained from Piet Borst at the Netherlands Cancer Institute) were seeded onto […] membranes (PET) in 96-well insert systems at 2.5×10^5 cells/mL until to 4-7 days for confluent cell monolayer formation.
Test compounds were diluted with the transport buffer (HBSS with 10 mM Hepes, pH7.4) from DMSO stock solution to a concentration of 2.00 μM (DMSO<1%) and applied to the apical or basolateral side of the cell monolayer. Permeation of the test compounds from A to B direction or B to A direction was determined in duplicate. Digoxin was tested at 10.0 μM from A to B direction or B to A direction as well, while nadolol and metoprolol were tested at […] in A to B direction in duplicate. The plate was incubated for 2.5 hours in CO2 incubator at 37±1° C., with 5% CO2 at saturated humidity without shaking. In addition, the efflux ratio of each compound was also determined. Test and reference compounds were quantified by LC-MS/MS analysis based on the peak area ratio of analyte/IS.
After transport assay, Lucifer yellow rejection assay are applied to determine the cell monolayer integrity. Buffers are removed from both apical and basolateral chambers, followed by the addition of 75 μL of 100 μM lucifer yellow in transport buffer and 250 μL transport buffer in apical and basolateral chambers, respectively. The plate is incubated for 30 minutes at 37° C. with 5% CO2 and saturated humidity without shaking. After 30 minutes incubation, 20 μL of lucifer yellow samples are taken from the apical sides, followed by the addition of 60 μL of Transport Buffer. And then 80 μL of lucifer yellow samples are taken from the basolateral sides. The relative fluorescence unit (RFU) of lucifer yellow is measured at 425/528 nm (excitation/emission) with an Envision plate reader.
The apparent permeability coefficient Papp (cm/s) was calculated using the equation: […]
Where dCr/dt is the cumulative concentration of compound in the receiver chamber as a function of time (μM/s); Vr is the solution volume in the receiver chamber (0.075 mL on the apical side, 0.25 mL on the basolateral side); A is the surface area for the transport, i.e. 0.0804 cm^2 for the area of the monolayer; C0 is the initial concentration in the donor chamber (μM). The efflux ratio was calculated using the equation: […]
Where Vd is the volume in the donor chambers (0.075 mL on the apical side, 0.25 mL on the basolateral side); Cd and Cr are the final concentrations of transport compound in donor and receiver chambers, respectively.

[2] = Three time point assay for plasma, brain and testes distribution after oral dosing; format: in vivo, rat; details: for Brain concentration / Kp testes/plasma / Plasma concentration / Testes concentration / Kp brain/plasma: rat, oral dosing
Summary of the method: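 Male SD rats received 10 mg/kg by oral gavage; plasma was sampled at one or more of 0.5, 2, 3, 5.3 and 7 h. PBS-perfused brain and testis were homogenized 1:9 in PBS (pH 7.4):MeOH 2:1, and compound levels were quantified by LC-MS/MS against calibration standards.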

T1 sequence (P08183 whole entry): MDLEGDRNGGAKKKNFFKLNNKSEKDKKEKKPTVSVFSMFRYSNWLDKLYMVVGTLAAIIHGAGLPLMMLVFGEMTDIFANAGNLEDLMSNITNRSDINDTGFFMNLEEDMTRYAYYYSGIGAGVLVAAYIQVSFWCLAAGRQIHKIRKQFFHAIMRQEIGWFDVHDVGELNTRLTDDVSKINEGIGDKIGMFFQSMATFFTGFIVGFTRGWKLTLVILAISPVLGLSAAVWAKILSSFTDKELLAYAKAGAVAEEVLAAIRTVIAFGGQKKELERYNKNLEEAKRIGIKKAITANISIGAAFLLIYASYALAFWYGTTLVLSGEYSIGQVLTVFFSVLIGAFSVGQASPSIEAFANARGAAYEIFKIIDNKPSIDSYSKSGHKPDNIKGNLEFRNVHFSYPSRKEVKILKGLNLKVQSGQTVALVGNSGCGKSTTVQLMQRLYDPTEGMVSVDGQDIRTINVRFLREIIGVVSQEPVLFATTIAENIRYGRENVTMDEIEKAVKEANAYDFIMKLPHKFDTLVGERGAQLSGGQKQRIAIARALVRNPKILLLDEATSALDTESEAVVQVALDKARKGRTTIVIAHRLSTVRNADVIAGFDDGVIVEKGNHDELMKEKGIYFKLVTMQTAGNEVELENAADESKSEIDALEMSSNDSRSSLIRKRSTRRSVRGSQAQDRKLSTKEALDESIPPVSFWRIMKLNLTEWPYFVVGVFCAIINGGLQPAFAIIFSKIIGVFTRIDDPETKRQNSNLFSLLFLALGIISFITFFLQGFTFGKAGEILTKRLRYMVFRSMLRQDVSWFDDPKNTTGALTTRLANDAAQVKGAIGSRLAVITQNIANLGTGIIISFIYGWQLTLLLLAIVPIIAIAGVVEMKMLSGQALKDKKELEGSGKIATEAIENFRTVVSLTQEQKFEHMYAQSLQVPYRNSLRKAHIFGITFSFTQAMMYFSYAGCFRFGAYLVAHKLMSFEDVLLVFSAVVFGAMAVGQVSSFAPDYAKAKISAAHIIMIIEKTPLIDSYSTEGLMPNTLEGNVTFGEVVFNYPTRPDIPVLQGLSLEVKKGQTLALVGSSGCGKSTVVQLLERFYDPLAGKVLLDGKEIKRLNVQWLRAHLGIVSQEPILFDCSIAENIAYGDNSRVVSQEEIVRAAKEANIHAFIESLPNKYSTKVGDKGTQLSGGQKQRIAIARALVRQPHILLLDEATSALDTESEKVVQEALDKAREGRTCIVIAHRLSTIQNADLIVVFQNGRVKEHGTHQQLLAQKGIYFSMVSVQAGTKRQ

Compound | MDCKII-MDR1: Efflux Ratio [1] | MDCKII-MDR1: Papp A-B [1] | Brain concentration ([2]; time point 2 h) [ng/g] | Kp testes/plasma ([2]; time point 2 h) | Plasma concentration ([2]; time point 2 h) [ng/mL] | Testes concentration ([2]; time point 2 h) [ng/g] | Kp brain/plasma ([2]; time point 2 h) | brain penetration as indicated by Kp (Cbrain/Cplasma) ([2]; result in words) | Brain concentration ([2]; time point 0.5 h) [ng/g] | Kp brain/plasma ([2]; time point 0.5 h) | Kp testes/plasma ([2]; time point 0.5 h) | Plasma concentration ([2]; time point 0.5 h) [ng/mL] | Testes concentration ([2]; time point 0.5 h) [ng/g] | Brain concentration ([2]; time point 7 h) [ng/g] | Kp brain/plasma ([2]; time point 7 h) | Kp testes/plasma ([2]; time point 7 h) | Plasma concentration ([2]; time point 7 h) [ng/mL] | Testes concentration ([2]; time point 7 h) [ng/g]
Cc1ccc(-c2noc(C(C)NS(C)(=O)=O)n2)cc1NC(=O)c1cnc2ccccn12 (single isomer, unassigned) [Compound I-237] | 20.5 | 1.43 10^−6 cm/s | 0 | 0.18 | 1090 | 192 | – | – | – | – | – | – | – | – | – | – | – | –
COCCOCc1ccn2c(C(=O)Nc3cc(-c4noc([C@H]5C[C@@H]5F)n4)ccc3C)cnc2c1 [Compound I-84] | 1.78 | 12.1 10^−6 cm/s | 400 | 0.11 | 5900 | 655 | 0.07 | do not significantly penetrate the brain or minimally penetrate the brain | – | – | – | – | – | – | – | – | – | –
Cc1ccc(-c2noc([C@H]3CC(F)(F)CN3)n2)cc1NC(=O)c1cnc2ccccn12 [Compound I-359] | 0.81 | 21.4 10^−6 cm/s | 52.7 | 0.12 | 2950 | 345 | 0.02 | – | – | – | – | – | – | – | – | – | – | –
Cc1ccc(-c2noc([C@H]3C[C@@H]3F)n2)cc1NC(=O)c1cnc2cc(OC(F)(F)F)ccn12 [Compound I-87] | 0.74 | 4.58 10^−6 cm/s | 954 | 0.71 | 1480 | 989 | 0.68 | – | 248 | 0.60 | 0.38 | 454 | 159 | 1730 | 0.36 | 0.34 | 4970 | 1650
Cc1ccc(-c2noc(C3(C)CC(F)(F)CN3)n2)cc1NC(=O)c1cnc2ccccn12 (racemic) [Compound I-328] | 0.93 | 20.8 10^−6 cm/s | 25.4 | 0.93 | 60.3 | 56.2 | 0.42 | – | – | – | – | – | – | – | – | – | – | –
Cc1ccc(-c2noc(C3CC(OCCF)C3)n2)cc1NC(=O)c1cnc2ccccn12 (stereo not shown) [Compound I-369] | 0.87 | 24.4 10^−6 cm/s | 1940 | 1.27 | 1630 | 2060 | 1.19 | – | – | – | – | – | – | – | – | – | – | –
Cc1ccc(-c2noc([C@H](C)O)n2)cc1NC(=O)c1cnc2ccccn12 [Compound I-271] | 1.36 | 18.5 10^−6 cm/s | 325 | 0.58 | 1760 | 1020 | 0.18 | – | – | – | – | – | – | – | – | – | – | –
Cc1ccc(-c2noc(C3(N)CC4(CC(F)(F)C4)C3)n2)cc1NC(=O)c1cnc2ccccn12 [Compound I-307] | 1.93 | 8.84 10^−6 cm/s | 82.4 | 1.19 | 389 | 464 | 0.21 | – | – | – | – | – | – | – | – | – | – | –
COC(=O)N1CC(c2nc(-c3ccc(Cl)c(NC(=O)c4cnc5ccccn45)c3)no2)C1 [Compound I-339] | 0.84 | 22.8 10^−6 cm/s | 603 | 0.79 | 1200 | 947 | 0.50 | – | – | – | – | – | – | – | – | – | – | –
